Assay results as given in ChEMBL document CHEMBL4033735, “A potent and selective natriuretic peptide receptor-3 blocker 11-mer peptide created by hybridization of musclin and atrial natriuretic peptide” (Bioorg Med Chem Lett, 2017).
Bridge positions count the residues as written; N and C are the ends. Square brackets hold non-standard residues; d marks the D form. Peptide text beside a SMILES is read from it. Cha = N[C@@H](CC1CCCCC1)C(=O)O

Columns and labels:
[1] = biological target: T1, Atrial natriuretic peptide receptor 1 (Homo sapiens, UniProt P16066); assay: Displacement of [125I]-human ANP from human NPR-1 incubated for 2 hrs by top count method
T1 sequence (P16066 whole entry): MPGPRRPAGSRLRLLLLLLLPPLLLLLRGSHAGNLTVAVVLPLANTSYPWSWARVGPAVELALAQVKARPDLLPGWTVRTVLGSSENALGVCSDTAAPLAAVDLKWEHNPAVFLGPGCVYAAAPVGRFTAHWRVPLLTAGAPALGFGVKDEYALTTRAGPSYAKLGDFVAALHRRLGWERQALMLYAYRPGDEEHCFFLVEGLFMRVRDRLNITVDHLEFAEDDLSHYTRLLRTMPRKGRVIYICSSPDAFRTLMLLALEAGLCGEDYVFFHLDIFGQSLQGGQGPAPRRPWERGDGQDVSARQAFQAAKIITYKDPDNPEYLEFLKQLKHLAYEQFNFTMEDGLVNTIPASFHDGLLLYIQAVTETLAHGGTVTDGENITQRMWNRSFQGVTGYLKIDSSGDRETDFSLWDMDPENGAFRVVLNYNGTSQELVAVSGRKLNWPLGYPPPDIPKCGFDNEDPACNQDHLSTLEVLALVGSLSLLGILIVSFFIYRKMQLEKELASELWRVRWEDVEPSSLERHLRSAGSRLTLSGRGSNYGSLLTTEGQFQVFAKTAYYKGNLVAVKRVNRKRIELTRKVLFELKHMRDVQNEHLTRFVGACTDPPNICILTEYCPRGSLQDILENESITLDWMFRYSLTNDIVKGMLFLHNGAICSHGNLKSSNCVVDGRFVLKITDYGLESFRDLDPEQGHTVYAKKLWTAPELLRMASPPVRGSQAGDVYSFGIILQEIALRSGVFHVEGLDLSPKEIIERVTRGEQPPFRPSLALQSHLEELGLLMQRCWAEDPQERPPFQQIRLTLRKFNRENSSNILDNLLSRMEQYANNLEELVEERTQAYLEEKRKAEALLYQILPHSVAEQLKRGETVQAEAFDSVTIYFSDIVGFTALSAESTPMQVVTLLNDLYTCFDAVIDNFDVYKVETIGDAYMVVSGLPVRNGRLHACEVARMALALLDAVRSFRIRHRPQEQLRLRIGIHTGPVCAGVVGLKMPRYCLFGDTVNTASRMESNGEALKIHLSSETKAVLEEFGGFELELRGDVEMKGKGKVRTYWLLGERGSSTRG

[2] = biological target: T2, Atrial natriuretic peptide receptor 3 (Homo sapiens, UniProt P17342); assay: Displacement of [125I]-human ANP from His-tagged and Fc fragment containing human NPR-3 extracellular domain expressed in FreeStyle 293 cells incubated for 2 hrs by top count method; assay type: cell-based
T2 sequence (P17342 whole entry): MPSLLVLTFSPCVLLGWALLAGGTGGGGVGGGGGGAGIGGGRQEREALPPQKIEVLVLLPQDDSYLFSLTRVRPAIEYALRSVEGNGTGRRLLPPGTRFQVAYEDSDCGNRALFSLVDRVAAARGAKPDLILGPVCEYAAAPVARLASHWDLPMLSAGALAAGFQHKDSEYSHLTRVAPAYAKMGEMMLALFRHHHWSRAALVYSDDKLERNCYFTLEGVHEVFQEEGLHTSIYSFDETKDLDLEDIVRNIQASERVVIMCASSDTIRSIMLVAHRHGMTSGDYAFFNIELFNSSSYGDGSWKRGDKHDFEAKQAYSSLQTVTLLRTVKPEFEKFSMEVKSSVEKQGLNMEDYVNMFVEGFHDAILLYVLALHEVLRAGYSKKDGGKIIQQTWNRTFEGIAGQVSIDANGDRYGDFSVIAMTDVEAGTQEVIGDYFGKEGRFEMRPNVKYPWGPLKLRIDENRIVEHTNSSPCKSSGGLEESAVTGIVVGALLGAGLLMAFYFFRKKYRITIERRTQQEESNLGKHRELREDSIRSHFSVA

[3] = Stability in 10% C57BL/6J mouse serum/phosphate-buffered saline assessed as residual parent compound remaining at 1 mM after 30 mins at 37 degC by HPLC method; assay type: ADME, cell-free; settings: 10% mouse serum in phosphate-buffered saline, read-out: Stability
[4] = Stability in 10% C57BL/6J mouse serum/phosphate-buffered saline assessed as residual parent compound remaining at 1 mM after 60 mins at 37 degC by HPLC method; assay type: ADME, cell-free; settings: 10% mouse serum in phosphate-buffered saline, read-out: Stability

SMILES	IC50 [1] [nM]	IC50 [2] [nM]	remaining at 0.5 h, 1000 µM [3] [%]	remaining at 1 h, 1000 µM [4] [%]
CC[C@H](C)[C@H](NC(=O)[C@H](CCCNC(=N)N)NC(=O)[C@H](CC(=O)O)NC(=O)[C@@H](NC(=O)[C@H](CCCNC(=N)N)NC(=O)CNC(=O)CNC(=O)[C@H](CC1CCCCC1)NC(=O)[C@H](CS)NC(C)=O)[C@@H](C)CC)C(=O)NCC(N)=O (Ac-C[Cha]GGRIDRIG-NH2)	> 1000	35	–	–
CC[C@H](C)[C@H](NC(=O)[C@H](CCCNC(=N)N)NC(=O)[C@H](CC(=O)O)NC(=O)[C@@H](NC(=O)[C@H](CCCNC(=N)N)NC(=O)CNC(=O)CNC(=O)[C@H](CC1CCCCC1)NC(=O)[C@@H](N)CS)[C@@H](C)CC)C(=O)NCC(N)=O (H-C[Cha]GGRIDRIG-NH2)	120	1.5	–	–
CC[C@H](C)[C@H](NC(=O)[C@H](CCCNC(=N)N)NC(=O)[C@H](CC(=O)O)NC(=O)[C@@H](NC(=O)[C@H](CCCNC(=N)N)NC(=O)CNC(=O)CNC(=O)[C@H](CC1CCCCC1)NC(=O)CNC(=O)[C@H](CO)NC(=O)[C@H](N)Cc1ccccc1)[C@@H](C)CC)C(=O)NCC(N)=O	> 1000	0.12	100	80
CC[C@H](C)[C@@H]1NC(=O)[C@H](CCCNC(=N)N)NC(=O)[C@H](CC(=O)O)NC(=O)[C@H](CCSC)NC(=O)[C@H](CCCNC(=N)N)NC(=O)CNC(=O)CNC(=O)[C@H](Cc2ccccc2)NC(=O)[C@@H](NC(=O)[C@H](CO)NC(=O)[C@H](CO)NC(=O)[C@H](CCCNC(=N)N)NC(=O)[C@H](CCCNC(=N)N)NC(=O)[C@H](CC(C)C)NC(=O)[C@@H](N)CO)CSSC[C@@H](C(=O)N[C@@H](CC(N)=O)C(=O)N[C@@H](CO)C(=O)N[C@@H](Cc2ccccc2)C(=O)N[C@@H](CCCNC(=N)N)C(=O)N[C@@H](Cc2ccc(O)cc2)C(=O)O)NCC(=O)NC(=O)[C@H](CC(C)C)NC(=O)CNC(=O)[C@H](CO)NC(=O)[C@H](CCC(N)=O)NC(=O)[C@H](C)NC(=O)CNC1=O	0.094	0.058	–	–
CC[C@H](C)[C@H](NC(=O)[C@H](CCCNC(=N)N)NC(=O)[C@H](CC(=O)O)NC(=O)[C@@H](NC(=O)[C@H](CCCNC(=N)N)NC(=O)CNC(=O)CNC(=O)[C@H](CC1CCCCC1)NC(=O)CNC(=O)[C@@H](N)CO)[C@@H](C)CC)C(=O)NCC(N)=O (H-SG[Cha]GGRIDRIG-NH2)	> 1000	22	–	–
CC[C@H](C)[C@H](NC(=O)[C@H](CCCNC(=N)N)NC(=O)[C@H](CC(=O)O)NC(=O)[C@@H](NC(=O)[C@H](CCCNC(=N)N)NC(=O)CNC(=O)CNC(=O)[C@@H](N)CC1CCCCC1)[C@@H](C)CC)C(=O)NCC(N)=O (H-[Cha]GGRIDRIG-NH2)	> 1000	11	–	–
CC[C@H](C)[C@H](NC(=O)[C@H](CCCNC(=N)N)NC(=O)[C@H](CC(=O)O)NC(=O)[C@@H](NC(=O)[C@H](CCCNC(=N)N)NC(=O)CNC(=O)CNC(=O)[C@H](CC1CCCCC1)NC(C)=O)[C@@H](C)CC)C(=O)NCC(N)=O (Ac-[Cha]GGRIDRIG-NH2)	> 1000	54	–	–
CC[C@H](C)[C@H](NC(=O)[C@H](CCCNC(=N)N)NC(=O)[C@H](CC(=O)O)NC(=O)[C@@H](NC(=O)[C@H](CCCNC(=N)N)NC(=O)CNC(=O)CNC(=O)[C@H](CC1CCCCC1)NC(=O)CNC(=O)[C@H](CO)NC(=O)[C@H](Cc1ccccc1)NC(=O)[C@@H](N)CO)[C@@H](C)CC)C(=O)NCC(N)=O (H-SFSG[Cha]GGRIDRIG-NH2)	> 1000	0.52	–	–
CC[C@H](C)[C@H](NC(=O)[C@H](CCCNC(=N)N)NC(=O)[C@H](CC(=O)O)NC(=O)[C@@H](NC(=O)[C@H](CCCNC(=N)N)NC(=O)CNC(=O)CNC(=O)[C@H](CC1CCCCC1)NC(=O)CNC(=O)[C@H](CO)NC(=O)[C@@H](Cc1ccccc1)NC(C)=O)[C@@H](C)CC)C(=O)NCC(N)=O	> 1000	0.93	–	–
CC[C@H](C)[C@H](NC(=O)[C@H](CCCNC(=N)N)NC(=O)[C@H](CC(=O)O)NC(=O)[C@@H](NC(=O)[C@H](CCCNC(=N)N)NC(=O)CNC(=O)CNC(=O)[C@H](CC1CCCCC1)NC(=O)CN)[C@@H](C)CC)C(=O)NCC(N)=O (H-G[Cha]GGRIDRIG-NH2)	> 1000	13	–	–
CC[C@H](C)[C@@H]1NC(=O)[C@H](CCCNC(=N)N)NC(=O)[C@H](CC(=O)O)NC(=O)[C@H]([C@@H](C)CC)NC(=O)[C@H](CCCNC(=N)N)NC(=O)CNC(=O)CNC(=O)[C@H](Cc2ccccc2)NC(=O)[C@@H](NC(=O)[C@H](CO)NC(=O)[C@H](CO)NC(=O)[C@@H](N)CCCNC(=N)N)CSSC[C@@H](C(=O)O)NC(=O)[C@H](C)NC(=O)CNC1=O (H-RSSCFGGRIDRIGAC-OH; disulfide 4-15)	> 1000	0.51	4	2
CC[C@H](C)[C@H](NC(=O)[C@H](CCCNC(=N)N)NC(=O)[C@H](CC(=O)O)NC(=O)[C@@H](NC(=O)[C@H](CCCNC(=N)N)NC(=O)CNC(=O)CNC(=O)[C@H](CC1CCCCC1)NC(=O)[C@@H](N)CO)[C@@H](C)CC)C(=O)NCC(N)=O (H-S[Cha]GGRIDRIG-NH2)	> 1000	15	–	–
CC[C@H](C)[C@H](NC(=O)[C@H](CCCNC(=N)N)NC(=O)[C@H](CC(=O)O)NC(=O)[C@@H](NC(=O)[C@H](CCCNC(=N)N)NC(=O)CNC(=O)[C@@H](C)NC(=O)[C@H](CC1CCCCC1)NC(=O)CNC(=O)[C@H](CO)NC(=O)[C@H](N)Cc1ccccc1)[C@@H](C)CC)C(=O)NCC(N)=O	> 1000	0.36	–	–
CC[C@H](C)[C@H](NC(=O)[C@H](CCCNC(=N)N)NC(=O)[C@H](CC(=O)O)NC(=O)[C@@H](NC(=O)[C@@H]1CCCN1C(=O)CNC(=O)CNC(=O)[C@H](CC1CCCCC1)NC(=O)CNC(=O)[C@H](CO)NC(=O)[C@H](N)Cc1ccccc1)[C@@H](C)CC)C(=O)NCC(N)=O	> 1000	0.12	–	–
CC[C@H](C)[C@H](NC(=O)[C@H](CCCNC(=N)N)NC(=O)[C@H](CC(=O)O)NC(=O)[C@@H](NC(=O)[C@H](CCCNC(=N)N)NC(=O)CNC(=O)CNC(=O)[C@H](Cc1ccccc1)NC(=O)[C@H](CS)NC(=O)[C@H](CO)NC(=O)[C@H](CO)NC(=O)[C@@H](N)CCCNC(=N)N)[C@@H](C)CC)C(=O)NCC(=O)N[C@@H](C)C(=O)N[C@@H](CS)C(=O)O (H-RSSCFGGRIDRIGAC-OH)	–	0.65	–	–
CC[C@H](C)[C@H](NC(=O)[C@H](CCCNC(=N)N)NC(=O)[C@H](CC(=O)O)NC(=O)[C@@H](NC(=O)[C@H](CCCNC(=N)N)NC(=O)CNC(=O)CNC(=O)[C@H](CC1CCCCC1)NC(=O)[C@H](C)N)[C@@H](C)CC)C(=O)NCC(N)=O (H-A[Cha]GGRIDRIG-NH2)	> 1000	13	–	–
CC[C@H](C)[C@H](NC(=O)[C@H](CCCNC(=N)N)NC(=O)[C@H](CC(=O)O)NC(=O)[C@@H](NC(=O)[C@H](CCCNC(=N)N)NC(=O)CNC(=O)CNC(=O)[C@H](CC1CCCCC1)NC(=O)CNC(=O)[C@H](CO)NC(=O)[C@H](CO)NC(=O)[C@@H](N)CCCNC(=N)N)[C@@H](C)CC)C(=O)NCC(N)=O (H-RSSG[Cha]GGRIDRIG-NH2)	> 1000	7.8	–	–
CC[C@H](C)[C@H](NC(=O)[C@H](CCCNC(=N)N)NC(=O)[C@H](CC(=O)O)NC(=O)[C@@H](NC(=O)[C@@H]1CCCN1C(=O)CNC(=O)[C@@H](C)NC(=O)[C@H](CC1CCCCC1)NC(=O)[C@H]1CCCN1C(=O)[C@H](CO)NC(=O)[C@@H](Cc1ccccc1)NC(C)=O)[C@@H](C)CC)C(=O)NCC(N)=O	> 1000	0.19	–	–
